{
  "source": "patent US10085955B2",
  "about": "“Methods and compositions for treatment of demyelinating diseases” (Pathologica LLC, priority 2013, dated 2018)",
  "key": {"[1]": {"test_system": "collagen-induced arthritis (CIA) model", "test": "Murine collagen-induced arthritis", "format": "in vivo, DBA/1 mice", "settings": "mice, 25 mg/kg PO BID", "excerpt": "The collagen-induced arthritis (CIA) model is considered a suitable model for studying potential drugs active in human arthritis because of the many immunological and pathological similarities to human rheumatoid arthritis (RA), the involvement of localized major histocompatibility, […] class-II-restricted T helper lymphocyte activation, and the similarity of histological lesions. See, e.g., Rosloniec E F et al., “Collagen-Induced Arthritis,” Current Protocols in Immunology, Unit 15.5 (1993). See also the model using a monoclonal antibody to CD18 and VLA-4 integrins described in Issekutz, A. C. et al., Immunology (1996) 88:569. […]\nData. […] Edema is measured on days 18-20, 22-27, and 29-34. Inflammation is assessed by infiltration of inflammatory cells and edema. Post-euthanasia, terminal blood draws are collected, heparinized, and frozen at −70° C. until analyzed for cytokines such as osteopontin, TNFalpha, IL-1, CRP, MCP1, MIP-lbeta, RANTES, IFNgamma, TGFbeta, IP-10, IL-17, and MMP9. […] Bone resorption is quantified by presence of osteoclasts, defects in or loss of medullary trabecular or cortical bone. Cartilage damage is assessed by examining the severity and spread of chondrocyte loss and collagen disruption. […]\nStatistical Analysis. Clinical data for paw scores (means for animal) are analyzed by determining the area under the dosing curve (AUC) for days 1-15. […]"}, "[2]": {"test": "Multi-species allometric scaling, predicted human pharmacokinetic parameters", "parameters": "species or system humans", "settings": "based on Mouse, Dog, Rhesus", "excerpt": "Multi-species allometric scaling based on pharmacokinetic parameters disclosed in Tables 2 and 3 was employed to calculate predicted pharmacokinetic parameters in humans according to methods known in the art. See, e.g., Ings R M, “Interspecies scaling and comparisons in drug development and toxicokinetics,” Xenobiotica, 1990 November; 20(11):1201-31 and Khor, S P et al., “Dihydropyrimidine dehydrogenase inactivation and 5-fluorouracil pharmacokinetics: allometric scaling of animal data, pharmacokinetics and toxicodynamics of 5-fluorouracil in humans,” Cancer Chemother Pharmacol (1997) 39(3): 833-38. Expected values are given below in Tables 6 and 7."}, "[3]": {"parameters": "species or system beagle dogs", "settings": "male, beagle, dog, in vivo", "description": "Two groups of three male beagle dogs weighing 9.0-10.7 kg and aged 8-30 months were fasted overnight before being administered the test article, MGBG, as either a single bolus intravenous dose of 1 mg/kg (Group 1) or as a single oral gavage dose of 10 mg/kg (Group 2). Dose formulation analysis verified administered dose solutions as within 17% of targeted concentrations of 1 and 10 mg/kg for Groups 1 and 2, respectively.\nBlood samples (approximately 2.0 mL) were collected for plasma MGBG concentration measurement from all intravenously dosed animals prior to dosing and at approximately T=0.083 (5 min), 0.25 (15 min), 0.5 (30 min), 1, 2, 4, 8, and 24 hours after dosing. A similar procedure was used with orally dosed animals was used, except that collection took place at T=1, 2, 4, 8, 12, 24, and 36 hours after dosing. The samples were centrifuged under refrigerated conditions following completion of sample collection at each interval. The resulting plasma was separated and stored frozen at approximately −70° C. until analysis."}},
  "note": "Like-named read-outs stand apart in the source and are kept apart here.",
  "data": [
    {"compound": "CC(/C=N/NC(=N)N)=N\\NC(=N)N", "note": "[MGBG, 1,1′ [methylethanediylidene]dinitrilodiguanidine]", "values": [
      {"measurement": "early phase of paw swelling/inflammation", "setting": "[1]", "value": "did affect the early phase of paw swelling/inflammation"},
      {"measurement": "efficacy as a disease-modifying anti-rheumatic drug (DMARD)", "setting": "[1]", "value": "not efficacious"},
      {"measurement": "CL", "setting": "[2]; IV", "value": 7.9, "unit": "mL/min/kg"},
      {"measurement": "VSS", "setting": "[2]; IV", "value": 9.1, "unit": "L/kg"},
      {"measurement": "t1/2", "setting": "[2]; IV", "value": 13.3, "unit": "h"},
      {"measurement": "CL", "setting": "[2]; IV, Rat", "value": 7.7, "unit": "mL/min/kg"},
      {"measurement": "VSS", "setting": "[2]; IV, Rat", "value": 9.0, "unit": "L/kg"},
      {"measurement": "t1/2", "setting": "[2]; IV, Rat", "value": 13.4, "unit": "h"},
      {"measurement": "CL", "setting": "[2]; ORAL", "value": 20.9, "unit": "mL/min/kg"},
      {"measurement": "VSS", "setting": "[2]; ORAL", "value": 41.6, "unit": "L/kg"},
      {"measurement": "t1/2", "setting": "[2]; ORAL", "value": 23.0, "unit": "h"},
      {"measurement": "CL", "setting": "[2]; ORAL, Rat", "value": 21.0, "unit": "mL/min/kg"},
      {"measurement": "VSS", "setting": "[2]; ORAL, Rat", "value": 42.4, "unit": "L/kg"},
      {"measurement": "t1/2", "setting": "[2]; ORAL, Rat", "value": 23.3, "unit": "h"},
      {"measurement": "Clobs", "setting": "[3]; iv, 1 mg/kg", "value": 13.7, "unit": "mL/min/kg"},
      {"measurement": "VSSobs", "setting": "[3]; iv, 1 mg/kg", "value": 14.6, "unit": "L/kg"},
      {"measurement": "Clobs", "setting": "[3]; po, 10 mg/kg", "value": 8.29, "unit": "mL/min/kg"},
      {"measurement": "Vd", "setting": "[3]; po, 10 mg/kg", "value": 14.6, "unit": "L/kg"}
    ]}
  ]
}
